Results taken from patent US20260256833A1, “USE OF BORON FOR THE TREATMENT OF LEISHMANIASIS DISEASE” (YEDITEPE UNIVERSITESI, priority 2023, published 2026).
Read-outs that look alike come from different tables or passages of the source.

Key:
leishmaniasis = conditions: cited from earlier work
[1] = system: L. infantum promastigotes; experiment: Phase-contrast and SEM morphology of parasites; format: cell-based, Leishmania infantum; conditions: 24 and 48 hours of incubation with SPT
Experimental: In parallel to this, Leishmania parasites incubated with SPT at different concentrations were morphologically examined under scanning electron microscopy.

[2] = system: Leishmania infantum (MHOM/MA/67/ITMA-P263) promastigotes; experiment: Resazurin / Alamar Blue viability assay on promastigotes; format: cell-based; conditions: for parasite viability: SPT above 100 μM
Experimental: Leishmania infantum (MHOM/MA/67/ITMA-P263) promastigotes are incubated in RPMI medium (heat inactivated 10% fetal bovine serum, 2 mM L-glutamine, 20 mM HEPES, 100 U/ml penicillin, 100 μg/ml streptomycin) at 27° C. Parasites reaching the logarithmic phase (10^6/ml) are made infective.
Leishmania parasites are incubated in culture medium and the effect of SPT on the proliferation of their promastigotes is analyzed. In summary, Leishmania infantum (MHOM/MA/67/ITMA-P263) promastigotes are incubated in RPMI medium (heat inactivated 10% fetal bovine serum, 2 mM L-glutamine, 20 mM Hepes, 100 U/ml penicillin, 100 μg/ml streptomycin) at 27° C. […] The viability of the parasites is determined by applying Alamar Blue assay. By obtaining IC50 values from the samples whose fluorescence intensities are read according to the Alamar Blue assay protocol, the activities of SPT are determined.

[3] = system: macrophages infected with L. infantum; experiment: Infection rate of infected macrophages by flow cytometry; format: cell-based, Leishmania infantum; conditions: SPT 50, 75, 100, 150, 200 and 400 μM; 24, 48 and 72 hours
Experimental: RAW264.7 macrophage cells and L. infantum promastigotes were stained with PKH26 (Red Fluorescent Cell Linker Kit, Sigma-Aldrich) and PKH67 (Green Fluorescent Cell Linker Kit, Sigma-Aldrich), respectively, according to the procedure described previously in the article by Islek et al. (2021). A total cell concentration of 10^7 cells/ml was used. Before infection, the staining rate of parasites and cells was determined by flow cytometry.
The effect of SPT on the proliferation of macrophage cells infected with parasites is analyzed. In summary, macrophages are infected with parasites at 37° C. at a ratio of 10:1 (parasite: macrophage). After 3 and a half hours, infected macrophages are washed with medium to remove the remaining parasites. Infected macrophages are left to incubate with SPT at different concentration ranges at 37° C. for 3 days, fixed at the end of 3 days and the infection rate is determined by flow cytometer. The percentage of infection is determined according to the following formula: […]

[4] = system: L. infantum promastigotes; experiment: Mitochondrial membrane potential, Rhodamine 123; format: cell-based, Leishmania infantum
Experimental: Mitochondrial membrane potential (ΔΨPm) is measured by using Rhodamine 123 mitochondrial specific fluorescent dye (Sigma-Aldrich). In summary, cells were seeded in a 48-well plate at 300.000 parasites/well. The following day, parasites are treated with SPT at various concentrations (50-400 uM) for 24 and 48 hours. After incubation, cells are resuspended in serum-free RPMI containing 10 μM Rhodamine 123 and incubated in the dark at 37-C for 30 minutes. They are then centrifuged and washed twice with 1×DPBS. The cell suspension is transferred to a 96-well plate and fluorescence intensities are measured at 490 nm excitation and 515 nm emission by using a spectrophoto-fluorimeter (Varioskan LUX multimode reader, Thermo Scientific). Absorbance is evaluated as a fold change with respect to the negative control group.

Structure (SMILES): C[C@@H]1[C@H](O)[C@@H](C)/C=C/C=C/C=C/C=C/C=C/C=C/C=C/[C@H](O[C@@H]2O[C@H](C)[C@@H](O)[C@H](N)[C@@H]2O)C[C@@H]2O[C@](O)(C[C@@H](O)C[C@@H](O)[C@H](O)CC[C@@H](O)C[C@@H](O)CC(=O)O[C@H]1C)C[C@H](O)[C@H]2C(=O)O [Amphotericin B]
- cure (comparison data) (leishmaniasis; 6-month therapy): 97%
- cure rate (leishmaniasis; cases where antimonial resistance is observed): ~100%

Structure (SMILES): CCCCCCCCCCCCCCCCOP(=O)([O-])OCC[N+](C)(C)C [Miltefosine]
- cure (comparison data) (leishmaniasis; miltefosine data compared with 6-month Amphotericin B therapy): 94%
- cure level (leishmaniasis; oral, 3-4-week treatment): 95-100%

Structure (SMILES): O.O.O.O.[Na+].[O-]B1OO1 [SPT, sodium perborate tetrahydrate]
- cell number and morphology by microscopy [1]: dose-dependent decrease in cell number
- IC50 ([2]; 72 hours): 72 ± 7.51 µM
- cell viability ([2]; SPT 75 μM, 24 hours): below 80%
- cell viability ([2]; SPT 75 μM, 48 hours): < 55%
- viability of promastigotes ([2]; SPT 75 μM, 72 hours): 50%
- reduction in parasite viability ([2]; SPT 100, 125, 150 and 200 μM, 72 hours): approximately 80%
- parasite viability ([2]; 24 hours): < 33%
- parasite viability ([2]; 48 hours): < 25%
- cell viability ([2]; SPT ≤50 uM, 24, 48 and 72 hours): above 80%
- infection rate [3]: infection rate did not increase regardless of time and concentration
- mitochondrial membrane potential ([4]; SPT 100 μM, 24 hours): 52.2%
- mitochondrial membrane potential ([4]; SPT 100 μM, 48 hours): 32.8%
- mitochondrial membrane potential ([4]; SPT 150 μM, 24 hours): 39.1%
- mitochondrial membrane potential ([4]; SPT 150 μM, 48 hours): 34.1%
- mitochondrial membrane potential ([4]; SPT 200 μM, 24 hours): 57.5%
- mitochondrial membrane potential ([4]; SPT 200 μM, 48 hours): 41.5%
- mitochondrial membrane potential ([4]; SPT 400 μM, 24 hours): 44.6%
- mitochondrial membrane potential ([4]; SPT 400 μM, 48 hours): 30.1%
- percentage of mitochondrial membrane potential ([4]; SPT ≤75 uM, 24 and 48 hours): above 80%
- mitochondrial membrane potential ([4]; SPT ≥100 μM, 24 hours): below 53%
- mitochondrial membrane potential ([4]; SPT ≥100 μM, 48 hours): below 35%
